The subject of series [1] is S-180 sarcoma. The experiment in a line: In vivo tumor growth inhibition, S-180 sarcoma in mice.
Series [2] in a line: Body weight and deaths of S-180 bearing mice. In kind it is in vivo.
The test system of a further series is tumor cell. The experiment in a line: Tumor cell apoptosis (further studies). In kind it is cell-based.
Another series deals with H22 hepatoma. The experiment in a line: In vivo tumor inhibition, H22 hepatoma. The conditions noted are these: compared with C16.
In series [3] the test system is S-180 sarcoma. Put plainly: In vivo tumor growth inhibition, S-180 sarcoma in mice. The conditions noted are these: for activity against mice S180 sarcoma (in words): i.p. injection. On the procedure: S-180 sarcoma developed for 7-11 days and in good growth trend was homogenated into cell suspension. The cell suspension was inoculated subcutaneously into right armpit of female KM mice (18˜22 g) (about 1.0−2.5×10^6 cells/mouse). After 24 h, the mice were grouped in random with compounds administrated by i.p. injection. From the next day on, the mice were given serial dosages. After treatment, animals were killed, and solid tumors were removed and weighed after the body weight were weighed. The inhibition rate was calculated as follows, and T-test was carried out: [(Average tumor weight of NS group−Average tumor weight of test group)/Average tumor weight of NS group]×100%.

The subject of a further series is tumor cell cycle. Put plainly: Tumor cell cycle arrest (further studies). The conditions noted are these: significantly dose-dependent. It is filed as cell-based.
In another series the test system is DNA. Put plainly: DNA double strand break (further studies).
The subject of series [4] is human gastric adenocarcinoma SGC-7901. Put plainly: Growth inhibition of SGC-7901 cells (MTT or SRB assay). It is filed as cell-based. The conditions noted are these: read-out: Growth inhibition effect to SGC-7901 cell strain. As for the experimental part:
(§1) The procedure of MTT assay was as follows: appropriate amount of cells in log phase were seeded in 96-well plates (6000 cells/well, 15000 cells/well, 90ul/well) according to the growing rate. After cultured for 24 h, cells were exposed to serial dilutions of drugs in triplicate (10 ul/well). In addition, wells without cell, and wells without cell but with serial dilutions of drugs in case of using a colored-drug were set for zeroing. Then, the cells were cultured in 5% CO2 humidified incubator at 37° C. for 48 h. After treatment of drugs for 48 h, 20ul MTT (Sigma) which was diluted by normal saline to the concentration of 5 mg/ml was added to each well, 50ul/well 10%SDS-5% isobutanol-0.01% mol/LHCl was added after 4 h. After cultured overnight, absorbance was measured at 570 nm using a multiwell spectrophotometer. The inhibition effect of the compounds in test (percentage of growth inhibition) was calculated for each well: % inhibition=(OD570control cells−OD570treated cells)/OD570control cells×100%.
(§2) The procedure of SRB assay was as follows: appropriate amount of cells in log phase were seeded in 96-well plates according to the growing rate (90 ul/well). After cultured for 24 h, cells were exposed to serial dilutions of drugs in triplicate (10 ul/well). In addition, control wells of normal saline in corresponding concentrations and zeroing wells without cell were set. The cells were incubated in 5% CO2 humidified incubator at 37° C. After 72 h, the medium was removed and cells were fixed with cold 10% trichloric acid (TCA) at 4° C. for 1 h. The plates were washed with distilled water 5 times, and stained in room temperature with 4 mg/ml SRB (Sigma, diluted with 1% glacial acetic acid, 100 ul/well) for 15 minutes after air drying. SRB was then washed with 1% acetic acid 5 times. Plates were dried, followed by adding 150 ul/well Tris solution. Absorbance was measured at […] using a multiwell spectrophotometer. The inhibition effect of the compounds in test (percentage of growth inhibition) was calculated for each well: % inhibition=(A540control cells−A540treated cells)/A540control cells×100%.
(§3) The methods used were MTT assay or SRB assay.
(§4) The cell lines used were mice leukemia cell P388, human leukemia cell MOLT-4, human lung adenocarcinoma cell A-549, human gastric adenocarcinoma SGC-7901, human hepatocellular carcinoma BEL-7402 and human embryonal fibroblast WI-38 (commerially available from ATCC).
(§5) The exposure time to compounds was 48 h-72 h.
(In general: Tetrazolium dyes change colour on reduction, which living cells bring about.)

The test system of series [5] is human lung adenocarcinoma cell A-549. Put plainly: Growth inhibition of A-549 cells, SRB protein staining assay. In kind it is cell-based. The conditions noted are these: read-out: Growth inhibition effect to A-549 cell strain; for inhibition at 100 µM: A549, 10^−4 M; for inhibition at 10 µM: A549, 10^−5 M; for inhibition at 1 µM: A549, 10^−6 M; for inhibition at 0.1 µM: A549, 10^−7 M; for inhibition at 0.01 µM: A549, 10^−8 M. As for the experimental part: (§6) The cell growth inhibition of mice leukemia cell P388 was evaluated by MTT (microculture tetrozolium) assay, while the cell growth inhibition of human lung adenocarcinoma cell A-549 was evaluated by SRB (Sulforhodamine B) protein staining assay.
as §2, §4, §5
Background: The SRB assay estimates cell density from bound dye.

Series [6] relates to human hepatocellular carcinoma BEL-7402. The experiment in a line: Growth inhibition of BEL-7402 cells (MTT or SRB assay). In kind it is cell-based. The conditions noted are these: read-out: Growth inhibition effect to BEL-7402 cell strain. As for the experimental part: as §1, §2, §3, §4, §5
The test system of a further series is mice leukemia cell P388. Put plainly: Growth inhibition of P388 cells, MTT assay. In kind it is cell-based. The conditions noted are these: Mus musculus, read-out: Growth inhibition effect to P388 cell strain; for inhibition at 100 µM: 10^−4 M; for inhibition at 10 µM: 10^−5 M; for inhibition at 1 µM: 10^−6 M; for inhibition at 0.1 µM: 10^−7 M; for inhibition at 0.01 µM: 10^−8 M. On the procedure: as §6, §1, §4, §5

Series [7] deals with human leukemia cell MOLT-4. The experiment in a line: Growth inhibition of MOLT-4 cells (MTT or SRB assay). It is filed as cell-based. The conditions noted are these: read-out: Growth inhibition effect to MOLT-4 cell strain. On the procedure: as §1, §2, §3, §4, §5
[8] abbreviates: 75 mg/kg i.v, injected twice (Day 1 and Day 4).

“Also recorded” adds a separate entry of the source.

Take `O=c1[nH]cc(F)c(=O)[nH]1` [5-FU]: in the series with S-180 sarcoma [1] (setting [8]), the “Tumor growth inhibition %” value turned out to be 96.9% and the “Weight of tumor (g) mean ± SD” value is given as 0.05 ± 0.04 g. The “Weight of mice (g) Day 7” value in series [2] (setting [8]) came to 20.7 g.
As to `CN(C)CCN1C(=O)c2cccc3cc(N)cc(c23)C1=O` [Amonafide, N-(β-dimethylaminoethyl)-3-amino-1,8-naphthalimide, reference compound], the results for the “Tumor growth inhibition %” value in the series with S-180 sarcoma [1] (5 mg/kg i.p) and in the series on S-180 sarcoma [1] (10 mg/kg i.p) were 30.9% and 15.4%, respectively. Besides, the “Weight of tumor (g) mean ± SD” value was found to be 1.37 ± 0.26 g in the series with S-180 sarcoma [1] (10 mg/kg i.p) and 1.12 ± 0.35 g in the series with S-180 sarcoma [3] (S-180 sarcoma, 5 mg/kg i.p). The tumor cell apoptosis entry in the series with tumor cell is reported as “trigger tumor cell apoptosis”. For the same molecule, in the series with H22 hepatoma, the “activity in parallel experiments (in words)” value is recorded as “not as active”. Besides, the “Weight of mice (g) Day 7” value in series [2] (5 mg/kg i.p) worked out at 32.0 g; in series [2] (10 mg/kg i.p) it was 31.3 g. Further, the “activity against mice S180 sarcoma (in words)” value with S-180 sarcoma [3] is “not potent”. In the series with tumor cell cycle, the “tumor cell cycle arrest” value is given as “arrest tumor cell cycle in G2/M phase”. Also, in the series with DNA, the “DNA double strand break” value is “induce the broken of DNA double strand”.
One may read the inhibition as the drop in the measured response relative to a control, in per cent. One may read the melting point as the temperature of the solid-liquid transition. In turn, `CN(C)CCN1C(=O)c2cccc3c2c(cc2nc(-c4cccc([N+](=O)[O-])c4)sc23)C1=O` [compound 7, N-(N′,N′-dimethylaminoethyl)-4H, 6H-9-m-nitrophenyl-benzo[de]thiazol[5,4-g]isoquinoline4,6-diketone] returned a melting point of 229 to 230 °C. Besides, in series [4] (10^−4 M), the inhibition at 100 µM amounted to 96.4%. The inhibition at 10 µM in series [4] (10^−5 M) was 95.1%. Moreover, the inhibition at 1 µM in [4] (10^−6 M) was 67%. In addition, in series [4] (10^−7 M), the inhibition at 0.1 µM was 6.9%. Further, the inhibition at 0.01 µM in series [4] (10^−8 M) was 3.4%. In addition, in series [5], the inhibition at 100 µM was 89.1%, the inhibition at 10 µM was found to be 89%, the inhibition at 1 µM worked out at 72.3% and the inhibition at 0.1 µM amounted to 71.3%. The inhibition at 0.01 µM in [5] came to 52%. In series [6] (10^−4 M), the inhibition at 100 µM turned out to be 96.9%. Also, the inhibition at 10 µM in series [6] (10^−5 M) came out at 95.8%. The inhibition at 1 µM in series [6] (10^−6 M) amounted to 80.6%. For the same molecule, the inhibition at 0.1 µM in series [6] (10^−7 M) turned out to be 33.1%. In [6] (10^−8 M), the inhibition at 0.01 µM amounted to 17%. Also, the “activity against mice S180 sarcoma (in words)” value with S-180 sarcoma [3] (listed as C7) is on record as “not potent; also recorded: active against S180 sarcoma, but weaker than C16”. Also, in the series with mice leukemia cell P388, the inhibition at 100 µM worked out at 98.7%, the inhibition at 10 µM was determined as 74.6%, the inhibition at 1 µM came to 47.9% and the inhibition at 0.1 µM was determined as 15.8%. In addition, the inhibition at 0.01 µM in the series with mice leukemia cell P388 was found to be 18%. In [7] (10^−4 M), the inhibition at 100 µM was 95.1%. Further, the inhibition at 10 µM in series [7] (10^−5 M) was determined as 99.2%. Also, the inhibition at 1 µM in series [7] (10^−6 M) worked out at 100%. Moreover, the inhibition at 0.1 µM in [7] (10^−7 M) came to 13.3%. The inhibition at 0.01 µM in [7] (10^−8 M) amounted to 0%.
In turn, `COc1ccc(-c2nc3cc4c5c(cccc5c3s2)C(=O)N(CCN(C)C)C4=O)cc1` [compound 9, N-(N′,N′-dimethylaminoethyl)-4H, 6H-9-p-methoxy phenyl-benzo[de]thiazol[5,4-g]isoquinoline-4,6-diketone] had a melting point of 216 to 217 °C. Also, in series [5], the inhibition at 100 µM was determined as 94.9%, the inhibition at 10 µM came to 93.9%, the inhibition at 1 µM stood at 94.5% and the inhibition at 0.1 µM was found to be 69.4%. Moreover, the inhibition at 0.01 µM in series [5] was 44.5%. For the same molecule, the “activity against mice S180 sarcoma (in words)” value in the series on S-180 sarcoma [3] (listed as C9) is “not potent; also recorded: active against S180 sarcoma, but weaker than C16”. Besides, in the series with mice leukemia cell P388, the inhibition at 100 µM stood at 95.1%, the inhibition at 10 µM was 92.3%, the inhibition at 1 µM was 78.2% and the inhibition at 0.1 µM was 15.2%. Besides, the inhibition at 0.01 µM in the series with mice leukemia cell P388 worked out at 21%.
